Experiments:
[1] = tested on: interleukin (IL)-1, human PBMCs; experiment: PBMC cytokine secretion (ELISA): IL-1; type: cell-based; settings: 100 μM; with or without LPS; 24 hours
Description: (§1) Freshly isolated human PBMCs were pre-incubated (FIGS. 11A and 11C) or not (FIGS. 11B and 11D) with LPS, and then incubated with ferulic acid (“FA,” 100 μM) and 11H-12,13E-LA, 11K-12,13E-LA, PBS, or LPS alone for 24 hours (blinded). Then, the medium concentration of TNF-alpha (FIGS. 11A and 11B) or […] (FIGS. 11C and 11D) was measured using enzyme-linked immunosorbent assay.

human THP-1 cells = experiment: ApoA1 cholesterol efflux screen in THP-1 cells; type: cell-based; settings: 50 μM; THP-1 cells incubated with ApoA1
Description: Human THP-1 cells were incubated with ApoA1 in the presence of linoleic acid or several different fatty acid derivatives (50 μM) in a blinded manner, and resulting cholesterol efflux was measured (FIG. 9) as previously described (PMID: 26879139).

[2] = tested on: freshly isolated human PBMCs; experiment: ApoA1 cholesterol efflux screen in freshly isolated PBMCs; type: cell-based; settings: 50 μM
male Sprague-Dawley rats = experiment: Nociceptive (pain) behavior after intradermal hindpaw injection; type: in vivo, rat; settings: after intradermal hindpaw injection (11H-12,13E-LA 30 μg), versus vehicle
Description: 11-hydroxy-12,13-trans-epoxy-(9Z)-octadecenoate (30 μg) was injected intradermally into the hindpaw of male Sprague-Dawley rats. Baseline measurements were taken for all tests prior to injection. A-delta and C-fiber mediated hindpaw withdrawal responses were measured as previously described (Mitchell et al., Pain 155, 733, 2014). Briefly, by stimulation of the plantar surface of the paw with a 100 ms laser pulse, producing a rapid withdrawal response. Laser pulses were delivered by an infrared diode laser (LASS-10 M; Lasmed, Mountain View, CA, USA) and calibrated to 3500 mA at 0.5 mm diameter, and delivered from 1 cm distance, C-fiber mediated responses were measured by delivery of a slow temperature ramp to the plantar surface of the hindpaw, with stimulus termination by voluntary withdrawal of the paw. The laser stimulus was adjusted to result in an approximately 10 second withdrawal latency (1000 mA, 13 cm distance).

[3] = tested on: tumor necrosis factor (TNF)-alpha secretion, human PBMCs; experiment: PBMC cytokine secretion (ELISA): TNF-alpha; type: cell-based; settings: 100 μM, 24 hours
Description: as §1

[4] = tested on: adult rat dorsal root ganglia (DRG) neurons; experiment: Ex vivo CGRP release assay in adult rat sensory neuronal cultures; type: cell-based; settings: 1 μM
Description: For release experiments, the work was approved by the Animal Care and Use Committee at Indiana University School of Medicine, Indianapolis, IN. Adult rat sensory neuronal cultures were prepared as previously described (Burkey, Hingtgen, and Vasko, Methods in molecular medicine 99, 189, 2004; Kelley et al., PloS one 9, e106485, 2014). Cells were maintained for 10-12 days in F-12 media (Invitrogen, Carlsbad, CA) supplemented with 10% horse serum, 2 mM glutamine, 100 μg/ml normocin™, 50 μg/ml penicillin, 50 μg/ml streptomycin, 50 μM 5-fluoro-2′-deoxyuridine (Invitrogen), 150 μM uridine, and 30 ng/ml of NGF (Harlan Bioproducts for Science, Inc. Indianapolis, IN) in 3% CO2 at 37° C. On the day of the release experiments, cultures were washed with HEPES buffer (25 mM HEPES, 135 mM NaCl, 3.5 mM KCl, 2.5 mM CaCl2, 1 mM MgCl2, 3.3 mM D-glucose, and 0.1% bovine serum albumin, pH 7.4 and maintained at 37° C. Cultures were then incubated with 0.4 ml of the same buffer in the absence or presence of drugs. Basal release was determined by exposing the cells to HEPES buffer alone for 10 min, then to buffer in the presence of mediators for 10 min to ascertain if the compounds stimulated release. Cultures were then exposed to buffer containing 30 nM capsaicin or buffer with the pH adjusted to 6.0 in the absence or presence of mediators. Cells then were re-exposed to HEPES buffer without drugs for a 10 min incubation to reestablish basal release. After each incubation, the buffer was removed to measure the amount of CGRP using radioimmunoassay as previously described (Chen et al., Peptides 17, 31, 1996). At the end of each release experiment, cells were hypotonically lysed by exposing the cultures to 0.1 M HCl for 10 min and an aliquot taken to measure total CGRP content in the cultures using radioimmunoassay. […] Release data are presented in fmol/well of cell/10 min from three independent experiments from separate harvests. Statistical analysis was performed using ANOVA with Tukey's post hoc test.

[5] = tested on: murine trigeminal sensory neurons; experiment: Ca2+ responses in cultured trigeminal sensory neurons; type: cell-based, mouse; settings: FIG. 7B
Description: Additionally, murine trigeminal sensory neurons were isolated and cultured in vitro. Fatty acid derivatives were applied to the cultured neurons and any resulting Ca^2+ response was measured in a blinded manner. The assayed compounds include: 11H-12,13E-LA (Compound 1), 11K-12,13E-LA (Compound 2), 11H-9,10E-LA (Compound 3), and 11K-9,10E-LA (Compound 4).

## CCCCCC1OC1C(O)/C=C\CCCCCCCC(=O)O (stereo not drawn) [11H-12,13E-LA, 11-hydroxy(H)-12,13-trans-epoxy-(E)-octadecenoate]
[1]
  IL-1 secretion: has no effect
Human THP-1 cells
  ApoA1-mediated monocyte cholesterol efflux: inhibited
[2]
  ApoA1-mediated monocyte cholesterol efflux: inhibited
Male Sprague-Dawley rats
  decrease of C-fiber withdrawal latencies: 28%
[3]; LPS pre-incubation
  LPS-induced TNF-alpha secretion: inhibits
[3]; no LPS
  native TNF-alpha secretion: inhibits
[4]; 30 nM capsaicin
  capsaicin-evoked CGRP release: significantly augmented
[4]; buffer pH adjusted to 6.0
  low-pH-evoked CGRP release: significantly augmented
[5]
  number of trigeminal cells responding, concentration-response: increase in the number of cells responding

Source: patent US12479812B2, “Fatty acid derivatives and their use” (THE UNITED STATES OF AMERICA, as represented by the …, priority 2017, dated 2025)
